Results taken from patent publication US9469617B2, “Molecules having certain pesticidal utilities, and intermediates, compositions, and processes related thereto” (priority 2014, dated 2016).

What was measured:
Assay type in all cases: in vivo
[1] = tested on: Beet Armyworm (BAW) (Spodoptera exigua); test: Bioassay on Beet Armyworm (BAW), 128-well diet tray assay; conditions: 168 h, Table ABC, 50 μg/cm^2 on artificial diet, second instar larvae, five to seven days, 25° C., read-out: BAW % Control (or Mortality) rating
Experimental: (§1) Certain molecules disclosed in this document were tested against BAW and CL using procedures described in the following examples. In the reporting of the results, the “BAW & CL Rating Table” was used (See Table Section).
Bioassays on BAW were conducted using a 128-well diet tray assay. one to five second instar BAW larvae were placed in each well (3 mL) of the diet tray that had been previously filled with 1 mL of artificial diet to which 50 μg/cm^2 of the test compound (dissolved in 50 μL of 90:10 acetone-water mixture) had been applied (to each of eight wells) and then allowed to dry. Trays were covered with a clear self-adhesive cover, and held at 25° C., 14:10 light-dark for five to seven days. Percent mortality was recorded for the larvae in each well; activity in the eight wells was then averaged. The results are indicated in the tables entitled “Table ABC: Assay Results” and “Table ABCD: Assay Results” (See Table Section).

[2] = tested on: Yellow Fever Mosquito (YFM) (Aedes aegypti); test: Bioassay on Yellow Fever Mosquito (YFM) larvae, 96-well plate; conditions: Table ABC; about 1 day-old larvae, master plate 4000 ppm in DMSO diluted, scored on mortality after 3 days
Experimental: Certain molecules disclosed in this document were tested against YFM using procedures described in the following paragraph. In the reporting of the results, the “GPA & YFM Rating Table” was used (See Table Section).
Master plates containing 400 μg of a molecule dissolved in 100 μL of dimethyl sulfoxide (DMSO) (equivalent to a 4000 ppm solution) are used. A master plate of assembled molecules contains 15 μL per well. To this plate, 135 μL of a 90:10 water:acetone mixture is added to each well. A robot (Biomek® NXP Laboratory Automation Workstation) is programmed to dispense 15 μL aspirations from the master plate into an empty 96-well shallow plate (“daughter” plate). There are 6 reps (“daughter” plates) created per master. The created daughter plates are then immediately infested with YFM larvae.
The day before plates are to be treated, mosquito eggs are placed in Millipore water containing liver powder to begin hatching (4 g. into 400 mL). After the daughter plates are created using the robot, they are infested with 220 μL of the liver powder/larval mosquito mixture (about 1 day-old larvae). After plates are infested with mosquito larvae, a non-evaporative lid is used to cover the plate to reduce drying. Plates are held at room temperature for 3 days prior to grading. After 3 days, each well is observed and scored based on mortality.

[3] = tested on: Cabbage Looper (CL) (Trichoplusia ni); test: Bioassay on Cabbage Looper (CL), 128-well diet tray assay; conditions: 168 h, Table ABC, 50 μg/cm^2 on artificial diet, second instar larvae, five to seven days, 25° C., read-out: CL % Control (or Mortality) rating
Experimental: as §1
Bioassays on CL were conducted using a 128-well diet tray assay. One to five second instar CL larvae were placed in each well (3 mL) of the diet tray that had been previously filled with 1 mL of artificial diet to which 50 μg/cm^2 of the test compound (dissolved in 50 μL of 90:10 acetone-water mixture) had been applied (to each of eight wells) and then allowed to dry. Trays were covered with a clear self-adhesive cover, and held at 25° C., 14:10 light-dark for five to seven days. Percent mortality was recorded for the larvae in each well; activity in the eight wells was then averaged. The results are indicated in the table entitled “Table ABC: Assay Results” and “Table ABCD: Assay Results” (See Table Section).

SMILES | mortality at 50 µg/cm2 [1] [%] | YFM % Control (or Mortality) rating [2] | mortality at 50 µg/cm2 [3] [%]
CC(C)c1ccccc1N1C(=O)CS/C1=N\C(=O)NC1Cc2ccc(-c3ncn(-c4ccc(OC(F)(F)F)cc4)n3)cc2C1 (stereo not drawn) [F16, (Z)-1-(3-(2-Isopropylphenyl)-4-oxothiazolidin-2-ylidene)-3-(5-(1-(4-(trifluoromethoxy)phenyl)-1H-1,2,4-triazol-3-yl)-2,3-dihydro-1H-inden-2-yl)urea] | 50 to 100 | A (80-100) | 50 to 100
CC(C)c1ccccc1N1/C(=N/C(=O)NC2Cc3ccc(-c4ncn(-c5ccc(OC(F)(F)F)cc5)n4)cc3C2)SCCC1C (stereo not drawn) [FA6, (Z)-1-(3-(2-Isopropylphenyl)-4-methyl-1,3-thiazinan-2-ylidene)-3-(5-(1-(4-(trifluoromethoxy)phenyl)-1H-1,2,4-triazol-3-yl)-2,3-dihydro-1H-inden-2-yl)urea] | 50 to 100 | A (80-100) | 50 to 100
CC1CS/C(=N\C(=O)NC2Cc3ccc(-c4ncn(-c5ccc(OC(F)(F)F)cc5)n4)cc3C2)N(c2ccccc2C(C)C)C1 (stereo not drawn) [FA5, (Z)-1-(3-(2-Isopropylphenyl)-5-methyl-1,3-thiazinan-2-ylidene)-3-(5-(1-(4-(trifluoromethoxy)phenyl)-1H-1,2,4-triazol-3-yl)-2,3-dihydro-1H-inden-2-yl)urea] | 50 to 100 | A (80-100) | 50 to 100
Cc1ccc(C(C)C)c(N2C(=O)C(C)S/C2=N\C(=O)NC2Cc3ccc(-c4ncn(-c5ccc(OC(F)(F)F)cc5)n4)cc3C2)c1 (stereo not drawn) [P13, (Z)-1-(3-(2-Isopropyl-5-methylphenyl)-5-methyl-4-oxothiazolidin-2-ylidene)-3-(5-(1-(4-(trifluoromethoxy)phenyl)-1H-1,2,4-triazol-3-yl)-2,3-dihydro-1H-inden-2-yl)urea] | 50 to 100 | B (More than 0-Less than 80) | 50 to 100
CCc1cccc(C)c1N1C(=O)CS/C1=N\C(=O)NC1Cc2ccc(-c3ncn(-c4ccc(OC(F)(F)F)cc4)n3)cc2C1 (stereo not drawn) [F10, (Z)-1-(3-(2-Ethyl-6-methylphenyl)-4-oxothiazolidin-2-ylidene)-3-(5-(1-(4-(trifluoromethoxy)phenyl)-1H-1,2,4-triazol-3-yl)-2,3-dihydro-1H-inden-2-yl)urea] | 50 to 100 | A (80-100) | 50 to 100
COc1ccc(N2C(=O)CS/C2=N\C(=O)NC2CCc3cc(-c4ncn(-c5ccc(OC(F)(F)F)cc5)n4)ccc3C2)c(C)c1 (stereo not drawn) [P35, (Z)-1-(3-(4-methoxy-2-methylphenyl)-4-oxothiazolidin-2-ylidene)-3-(6-(1-(4-(trifluoromethoxy)phenyl)-1H-1,2,4-triazol-3-yl)-1,2,3,4-tetrahydronaphthalen-2-yl)urea] | 50 to 100 | A (80-100) | 50 to 100
CCc1cccc(C)c1N1C(=O)CS/C1=N\C(=O)NC1CCc2cc(-c3ncn(-c4ccc(OC(F)(F)F)cc4)n3)ccc2C1 (stereo not drawn) [P36, (Z)-1-(3-(2-Ethyl-6-methylphenyl)-4-oxothiazolidin-2-ylidene)-3-(6-(1-(4-(trifluoromethoxy)phenyl)-1H-1,2,4-triazol-3-yl)-1,2,3,4-tetrahydronaphthalen-2-yl)urea] | 50 to 100 | A (80-100) | 50 to 100
COc1ccc(C(C)C)c(N2C(=O)CS/C2=N\C(=O)NC2Cc3ccc(-c4ncn(-c5ccc(OC(F)(F)F)cc5)n4)cc3C2)c1 (stereo not drawn) [P9, (Z)-1-(3-(2-Isopropyl-5-methoxyphenyl)-4-oxothiazolidin-2-ylidene)-3-(5-(1-(4-(trifluoromethoxy)phenyl)-1H-1,2,4-triazol-3-yl)-2,3-dihydro-1H-inden-2-yl)urea] | 50 to 100 | A (80-100) | 50 to 100
CCc1ccc(C)cc1N1C(=O)CS/C1=N\C(=O)NC1Cc2ccc(-c3ncn(-c4ccc(OC(F)(F)F)cc4)n3)cc2C1 (stereo not drawn) [F9, (Z)-1-(3-(2-Ethyl-5-methylphenyl)-4-oxothiazolidin-2-ylidene)-3-(5-(1-(4-(trifluoromethoxy)phenyl)-1H-1,2,4-triazol-3-yl)-2,3-dihydro-1H-inden-2-yl)urea] | 50 to 100 | A (80-100) | 50 to 100
COc1ccc(N2C(=O)CS/C2=N\C(=O)NC2Cc3ccc(-c4ncn(-c5ccc(OC(F)(F)F)cc5)n4)cc3C2)c(C)c1 (stereo not drawn) [P6, (Z)-1-(3-(4-methoxy-2-methylphenyl)-4-oxothiazolidin-2-ylidene)-3-(5-(1-(4-(trifluoromethoxy)phenyl)-1H-1,2,4-triazol-3-yl)-2,3-dihydro-1H-inden-2-yl)urea] | 50 to 100 | A (80-100) | 50 to 100
Cc1ccc(C(C)C)c(N2C(=O)CS/C2=N\C(=O)NC2CCc3cc(-c4ncn(-c5ccc(OC(F)(F)F)cc5)n4)ccc3C2)c1 (stereo not drawn) [F17, (Z)-1-(3-(2-isopropyl-5-methylphenyl)-4-oxothiazolidin-2-ylidene)-3-(6-(1-(4-(trifluoromethoxy)phenyl)-1H-1,2,4-triazol-3-yl)-1,2,3,4-tetrahydronaphthalen-2-yl)urea] | 50 to 100 | A (80-100) | 50 to 100
COc1ccc(C(C)C)c(NC(=S)NC(=O)NC2Cc3ccc(-c4ncn(-c5ccc(OC(F)(F)F)cc5)n4)cc3C2)c1 (stereo not drawn) [P4, 1-[(2-Isopropyl-5-methoxy-phenyl)carbamothioyl]-3-[5-[1-[4-(trifluoromethoxy)phenyl]-1,2,4-triazol-3-yl]indan-2-yl]urea] | 50 to 100 | A (80-100) | 50 to 100
COc1ccc(NC(=S)NC(=O)NC2Cc3ccc(-c4ncn(-c5ccc(OC(F)(F)F)cc5)n4)cc3C2)c(C)c1 (stereo not drawn) [P1] | 50 to 100 | A (80-100) | 50 to 100
CC(C)c1ccccc1N1CCCS/C1=N\C(=O)NC1Cc2ccc(-c3ncn(-c4ccc(OC(F)(F)F)cc4)n3)cc2C1 (stereo not drawn) [P19, (Z)-1-(3-(2-Isopropylphenyl)-1,3-thiazinan-2-ylidene)-3-(5-(1-(4-(trifluoromethoxy)phenyl)-1H-1,2,4-triazol-3-yl)-2,3-dihydro-1H-inden-2-yl)urea] | 50 to 100 | A (80-100) | 50 to 100
CC(C)c1ccccc1N1C(=O)CS/C1=N\C(=O)NC1CCc2cc(-c3ncn(-c4ccc(OC(F)(F)F)cc4)n3)ccc2C1 (stereo not drawn) [P24, (Z)-1-(3-(2-Isopropylphenyl)-4-oxothiazolidin-2-ylidene)-3-(6-(1-(4-(trifluoromethoxy)phenyl)-1H-1,2,4-triazol-3-yl)-1,2,3,4-tetrahydronaphthalen-2-yl)urea] | 50 to 100 | A (80-100) | 50 to 100
Cc1ccc(NC(=S)NC(=O)NC2Cc3ccc(-c4ncn(-c5ccc(OC(F)(F)F)cc5)n4)cc3C2)c(C(C)C)c1 (stereo not drawn) [P5, 1-[(2-Isopropyl-4-methyl-phenyl)carbamothioyl]-3-[5-[1-[4-(trifluoromethoxy)phenyl]-1,2,4-triazol-3-yl]indan-2-yl]urea] | 50 to 100 | A (80-100) | 50 to 100
O=C(NC(=S)Nc1ccccc1C1CC1)NC1Cc2ccc(-c3ncn(-c4ccc(OC(F)(F)F)cc4)n3)cc2C1 (stereo not drawn) [F11, 1-[(2-Cyclopropylphenyl)carbamothioyl]-3-[5-[1-[4-(trifluoromethoxy)phenyl]-1,2,4-triazol-3-yl]indan-2-yl]urea] | 50 to 100 | A (80-100) | 50 to 100
